From ChEMBL document CHEMBL1201862, “PubChem BioAssay data set” (2004)
Activity calls are given as the source filed them.

Legend:
[1] = molecular target: Nonstructural protein 1 (Influenza A virus, UniProt Q194T2); assay type: functional, Influenza A virus (A/California/07/2009(H1N1))
[2] = viability of PTEN-deleted HCT116 cells – cell-based, HCT116 PTEN knockout, dose response (AID 1047); assay type: functional;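 note: HCT116 colon tumor cells with PTEN knocked out; cells exposed to compound for 60 hours before readout; potency for loss of cell viability measured by luminescence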
[3] = viability of HCT116 lacking mutant beta-catenin – cell-based, human colon tumor, dose response (AID 1045); assay type: functional;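 note: HCT116 colon tumor cells with beta catenin knocked out; cells exposed to compound for 60 hours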
[4] = microbe, parasite or virus in culture; assay type: functional; conditions: Mycobacterium tuberculosis
[5] = Luminescence Cell-Based Dose Retest to Confirm Inhibitors of Cancer Stem Cells. [Related pubchem assays (depositor defined):AID2717, AID2721]; assay type: functional; conditions: Homo sapiens
[6] = molecular target: FAD-linked sulfhydryl oxidase ALR (Homo sapiens, UniProt P55789); test: ALR-catalysed DTT oxidation blockers – biochemical, H2O2 detection, luminescence, cherry-pick, dose response (AID 493248)
[7] = molecular target: Eukaryotic translation initiation factor 4E (Mus musculus, UniProt P63073); test: blockers of eIF4G binding by eIF4E – biochemical, TR-FRET, dose response (AID 855); assay type: functional;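 note: potency for disrupting eIF4E binding to eIF4GI seen as loss of FRET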
[8] = molecular target: Genome polyprotein (dengue virus type 2, UniProt P29990); test: flavivirus cap methylation enzyme inhibition – biochemical, confirmation dose response, primary screen (AID 588689); assay type: functional
[9] = molecular target: T1, Ubiquitin-conjugating enzyme E2 N (Homo sapiens, UniProt P61088); assay type: functional;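 note: Dose-response confirmation in a TR-FRET assay detecting UBC13-driven polyubiquitin chain formation, inhibition measured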
T1 sequence (P61088 whole entry): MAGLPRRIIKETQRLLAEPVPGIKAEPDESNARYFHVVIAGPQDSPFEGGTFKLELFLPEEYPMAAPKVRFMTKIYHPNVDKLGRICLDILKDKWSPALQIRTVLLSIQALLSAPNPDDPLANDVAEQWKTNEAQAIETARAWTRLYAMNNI

[10] = reduction of Shn3 3'UTR-driven luciferase in osteoblasts – cell-based, Clone20 osteoblasts, firefly luciferase, cherry-picked, dose response (AID 624132); assay type: functional;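 note: firefly luciferase luminescence from reporter carrying the Shn3 3'UTR in osteoblasts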
[11] = loss of viability in HepG2 cells – cell-based, CellTiter-Glo, cherry-picked, cytotoxicity control for Shn3 inhibitor project, dose response (AID 624134); assay type: functional
[12] = non-specific 3'UTR reporter inhibition in Clone20-Shn3RL – cell-based, Renilla luciferase, cherry-picked, counter-screen for Shn3 inhibitor project, dose response (AID 624133); assay type: functional
[13] = cells; assay type: functional, cell-based
[14] = cells; assay type: functional, cell-based; remark: listed apart in the source
[15] = test system: Streptococcus sp. 'group A'; test: Streptococcus pyogenes SK(-)GAS viability under kanamycin – luminescence, BacTiterGlo, confirmation, counter-screen for streptokinase expression inhibitor project, dose response (AID 1900); assay type: functional, organism-based
[16] = molecular target: T2, Streptokinase A (Streptococcus pyogenes serotype M1, UniProt P10520); test: viability-normalized secreted streptokinase activity reduction – plasminogen activation absorbance, OD405, dose response (AID 1914); assay type: functional, Streptococcus pyogenes M1 GAS;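 note: secreted streptokinase activity via plasminogen activation per viability signal from cell pellet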
T2 sequence (P10520 whole entry): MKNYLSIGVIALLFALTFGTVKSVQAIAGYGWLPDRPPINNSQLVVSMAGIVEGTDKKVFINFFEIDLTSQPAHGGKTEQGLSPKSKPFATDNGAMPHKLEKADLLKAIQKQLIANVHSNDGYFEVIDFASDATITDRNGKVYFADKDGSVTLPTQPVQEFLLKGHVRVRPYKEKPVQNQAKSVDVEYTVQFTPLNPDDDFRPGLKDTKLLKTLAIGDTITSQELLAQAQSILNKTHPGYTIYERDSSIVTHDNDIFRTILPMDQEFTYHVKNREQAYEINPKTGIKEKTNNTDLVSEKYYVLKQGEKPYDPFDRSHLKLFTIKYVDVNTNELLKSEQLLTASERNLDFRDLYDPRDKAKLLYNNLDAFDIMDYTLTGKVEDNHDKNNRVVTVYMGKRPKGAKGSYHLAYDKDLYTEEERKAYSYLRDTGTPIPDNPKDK

[17] = test system: Streptococcus; test: GAS UMAA2166 growth inhibition – luminescence, BacTiterGlo, counter-screen for streptokinase expression inhibitor project, dose response (AID 1915); assay type: functional, organism-based;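 note: potency for reduction of bacterial viability or growth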
[18] = molecular target: T3, Cytochrome P450 2C9 (Homo sapiens, UniProt P11712)
[19] = molecular target: Large T antigen (Simian virus 40, UniProt P03070); assay type: functional, Betapolyomavirus macacae;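 note: Confirmatory-stage PubChem screen for compounds that inhibit SV40 T antigen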
[20] = molecular target: Cytochrome P450 2D6 (Homo sapiens, UniProt P10635);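 note: CYP2D6 member of a cytochrome P450 panel assay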
[21] = molecular target: T3, Cytochrome P450 2C9; remark: listed apart in the source
[22] = molecular target: Heat shock protein HSP 90-alpha (Homo sapiens, UniProt P07900); assay type: functional, organism-based
[23] = molecular target: T4, Replicative DNA helicase DnaB (Mycobacterium tuberculosis, UniProt P9WMR3); test: DnaB intein splicing inhibitors, dose response, biochemical, cell-free fluorescence (AID 449749); assay type: functional
T4 sequence (P9WMR3 whole entry): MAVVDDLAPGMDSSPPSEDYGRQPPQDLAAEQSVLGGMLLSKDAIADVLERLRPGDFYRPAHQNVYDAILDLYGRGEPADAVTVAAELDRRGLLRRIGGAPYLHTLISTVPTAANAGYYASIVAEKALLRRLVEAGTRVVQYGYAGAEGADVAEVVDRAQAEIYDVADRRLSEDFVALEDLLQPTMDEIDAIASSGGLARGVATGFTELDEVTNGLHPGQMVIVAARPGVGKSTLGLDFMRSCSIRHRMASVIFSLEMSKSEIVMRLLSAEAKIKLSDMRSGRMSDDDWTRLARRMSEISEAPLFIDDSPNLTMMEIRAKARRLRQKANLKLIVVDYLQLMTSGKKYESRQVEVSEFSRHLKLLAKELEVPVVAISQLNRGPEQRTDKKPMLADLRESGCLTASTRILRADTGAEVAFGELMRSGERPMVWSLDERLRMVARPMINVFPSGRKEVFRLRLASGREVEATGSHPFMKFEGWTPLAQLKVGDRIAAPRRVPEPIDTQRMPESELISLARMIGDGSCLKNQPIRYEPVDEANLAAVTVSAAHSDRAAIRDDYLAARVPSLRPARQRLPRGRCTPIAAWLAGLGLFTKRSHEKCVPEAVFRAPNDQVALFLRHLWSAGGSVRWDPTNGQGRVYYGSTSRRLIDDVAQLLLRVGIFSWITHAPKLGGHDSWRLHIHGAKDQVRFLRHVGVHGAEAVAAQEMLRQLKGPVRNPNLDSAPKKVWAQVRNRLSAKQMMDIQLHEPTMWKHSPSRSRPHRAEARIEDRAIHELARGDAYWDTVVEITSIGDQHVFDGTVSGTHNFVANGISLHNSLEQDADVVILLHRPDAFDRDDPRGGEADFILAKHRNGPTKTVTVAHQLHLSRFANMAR

[24] = molecular target: T5, Protein RecA (Mycobacterium tuberculosis, UniProt P9WHJ3); test: Fluorescence Cell-Free Homogeneous Dose Retest to Identify Inhibitors of RecA-Intein Splicing Activity. [Related pubchem assays (depositor defined):AID2097, AID2223, AID489010, AID492950]; assay type: functional
T5 sequence (P9WHJ3 whole entry): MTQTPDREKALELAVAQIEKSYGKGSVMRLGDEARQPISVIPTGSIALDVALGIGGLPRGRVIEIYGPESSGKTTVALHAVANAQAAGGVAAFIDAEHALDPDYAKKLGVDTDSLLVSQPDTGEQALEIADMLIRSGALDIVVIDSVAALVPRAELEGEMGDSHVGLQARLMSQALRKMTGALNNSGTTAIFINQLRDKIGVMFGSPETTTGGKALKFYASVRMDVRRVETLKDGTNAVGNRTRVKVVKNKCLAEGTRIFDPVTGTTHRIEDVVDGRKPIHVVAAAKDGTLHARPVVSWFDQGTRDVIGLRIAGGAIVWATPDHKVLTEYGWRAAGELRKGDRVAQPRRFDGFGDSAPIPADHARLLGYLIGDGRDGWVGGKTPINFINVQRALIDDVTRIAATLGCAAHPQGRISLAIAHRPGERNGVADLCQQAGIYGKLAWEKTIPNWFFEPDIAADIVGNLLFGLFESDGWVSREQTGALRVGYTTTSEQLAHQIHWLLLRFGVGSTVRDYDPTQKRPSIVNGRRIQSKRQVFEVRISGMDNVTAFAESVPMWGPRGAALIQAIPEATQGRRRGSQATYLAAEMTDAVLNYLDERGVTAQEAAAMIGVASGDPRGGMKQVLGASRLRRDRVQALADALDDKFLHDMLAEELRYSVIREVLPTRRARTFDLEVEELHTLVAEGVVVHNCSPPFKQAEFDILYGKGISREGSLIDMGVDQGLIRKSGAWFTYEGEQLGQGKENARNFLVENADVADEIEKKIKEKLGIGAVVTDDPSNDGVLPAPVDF

Sequence of Nonstructural protein 1 (Q194T2 whole entry): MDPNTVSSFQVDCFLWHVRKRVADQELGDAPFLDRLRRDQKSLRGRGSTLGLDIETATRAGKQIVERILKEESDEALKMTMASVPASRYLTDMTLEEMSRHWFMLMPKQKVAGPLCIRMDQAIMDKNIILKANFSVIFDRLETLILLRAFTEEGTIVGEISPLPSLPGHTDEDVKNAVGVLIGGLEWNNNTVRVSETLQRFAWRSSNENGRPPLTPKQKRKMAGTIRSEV
Sequence of FAD-linked sulfhydryl oxidase ALR (P55789 whole entry): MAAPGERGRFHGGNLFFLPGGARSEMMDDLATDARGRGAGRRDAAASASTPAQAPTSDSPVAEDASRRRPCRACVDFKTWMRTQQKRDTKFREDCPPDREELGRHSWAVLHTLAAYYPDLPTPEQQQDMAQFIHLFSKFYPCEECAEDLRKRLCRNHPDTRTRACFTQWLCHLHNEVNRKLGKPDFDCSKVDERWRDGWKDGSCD
T3 sequence (P11712 whole entry): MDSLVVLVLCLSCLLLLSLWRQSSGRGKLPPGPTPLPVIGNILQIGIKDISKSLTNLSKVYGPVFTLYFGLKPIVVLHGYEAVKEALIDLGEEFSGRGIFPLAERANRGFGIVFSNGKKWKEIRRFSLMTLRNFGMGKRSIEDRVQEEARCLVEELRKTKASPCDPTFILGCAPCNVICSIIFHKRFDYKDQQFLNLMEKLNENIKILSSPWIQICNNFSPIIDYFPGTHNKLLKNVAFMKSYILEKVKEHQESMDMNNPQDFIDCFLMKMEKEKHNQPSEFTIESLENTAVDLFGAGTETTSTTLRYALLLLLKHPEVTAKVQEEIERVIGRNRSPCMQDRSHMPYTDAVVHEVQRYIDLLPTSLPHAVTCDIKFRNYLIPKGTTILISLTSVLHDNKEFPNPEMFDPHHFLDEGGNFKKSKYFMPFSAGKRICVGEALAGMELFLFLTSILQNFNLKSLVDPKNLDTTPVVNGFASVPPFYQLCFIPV
Sequence of Eukaryotic translation initiation factor 4E (P63073 whole entry): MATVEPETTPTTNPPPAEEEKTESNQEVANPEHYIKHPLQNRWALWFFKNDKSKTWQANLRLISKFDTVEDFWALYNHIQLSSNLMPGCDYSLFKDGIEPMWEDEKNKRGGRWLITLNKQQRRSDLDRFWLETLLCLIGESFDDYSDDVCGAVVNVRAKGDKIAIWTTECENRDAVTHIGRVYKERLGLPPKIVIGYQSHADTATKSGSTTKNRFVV
Sequence of Genome polyprotein (P29990 2492-3391 limits assumed): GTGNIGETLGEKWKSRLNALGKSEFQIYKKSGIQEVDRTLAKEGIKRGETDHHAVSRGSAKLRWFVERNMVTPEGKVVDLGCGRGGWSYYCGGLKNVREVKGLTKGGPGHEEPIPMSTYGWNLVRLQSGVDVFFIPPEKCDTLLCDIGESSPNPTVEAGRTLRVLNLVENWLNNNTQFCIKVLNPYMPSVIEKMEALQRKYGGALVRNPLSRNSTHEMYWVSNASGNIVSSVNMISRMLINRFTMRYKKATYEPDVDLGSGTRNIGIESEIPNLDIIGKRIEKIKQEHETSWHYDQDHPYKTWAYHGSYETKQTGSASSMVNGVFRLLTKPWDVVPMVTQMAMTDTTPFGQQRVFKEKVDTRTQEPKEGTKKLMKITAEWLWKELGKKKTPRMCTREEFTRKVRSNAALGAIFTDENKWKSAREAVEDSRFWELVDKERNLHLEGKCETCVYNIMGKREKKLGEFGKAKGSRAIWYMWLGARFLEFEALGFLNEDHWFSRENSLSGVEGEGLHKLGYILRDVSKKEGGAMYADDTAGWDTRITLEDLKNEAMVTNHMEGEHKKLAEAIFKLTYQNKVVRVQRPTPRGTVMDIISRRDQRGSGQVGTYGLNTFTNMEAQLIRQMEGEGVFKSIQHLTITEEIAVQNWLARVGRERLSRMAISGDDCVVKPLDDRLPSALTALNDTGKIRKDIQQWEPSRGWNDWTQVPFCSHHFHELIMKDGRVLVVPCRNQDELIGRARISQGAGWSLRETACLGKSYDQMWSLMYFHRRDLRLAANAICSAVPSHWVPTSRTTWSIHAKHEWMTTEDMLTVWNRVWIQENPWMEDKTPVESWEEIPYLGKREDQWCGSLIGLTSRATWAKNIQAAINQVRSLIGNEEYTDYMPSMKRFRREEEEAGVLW
Sequence of Cytochrome P450 2D6 (P10635 whole entry): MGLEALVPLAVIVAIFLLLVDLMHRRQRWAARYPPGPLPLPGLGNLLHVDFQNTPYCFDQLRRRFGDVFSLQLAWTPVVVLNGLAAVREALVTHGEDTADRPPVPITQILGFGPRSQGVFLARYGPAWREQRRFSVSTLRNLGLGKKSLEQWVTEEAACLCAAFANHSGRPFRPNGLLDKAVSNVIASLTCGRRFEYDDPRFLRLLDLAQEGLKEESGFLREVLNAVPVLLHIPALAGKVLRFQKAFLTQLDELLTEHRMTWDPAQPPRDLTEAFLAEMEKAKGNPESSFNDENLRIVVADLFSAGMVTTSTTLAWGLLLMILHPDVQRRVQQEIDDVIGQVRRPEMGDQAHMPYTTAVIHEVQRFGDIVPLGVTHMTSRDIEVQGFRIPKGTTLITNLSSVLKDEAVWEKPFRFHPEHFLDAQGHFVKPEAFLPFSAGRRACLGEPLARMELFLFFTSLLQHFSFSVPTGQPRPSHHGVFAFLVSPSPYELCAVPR
Sequence of Large T antigen (P03070 whole entry): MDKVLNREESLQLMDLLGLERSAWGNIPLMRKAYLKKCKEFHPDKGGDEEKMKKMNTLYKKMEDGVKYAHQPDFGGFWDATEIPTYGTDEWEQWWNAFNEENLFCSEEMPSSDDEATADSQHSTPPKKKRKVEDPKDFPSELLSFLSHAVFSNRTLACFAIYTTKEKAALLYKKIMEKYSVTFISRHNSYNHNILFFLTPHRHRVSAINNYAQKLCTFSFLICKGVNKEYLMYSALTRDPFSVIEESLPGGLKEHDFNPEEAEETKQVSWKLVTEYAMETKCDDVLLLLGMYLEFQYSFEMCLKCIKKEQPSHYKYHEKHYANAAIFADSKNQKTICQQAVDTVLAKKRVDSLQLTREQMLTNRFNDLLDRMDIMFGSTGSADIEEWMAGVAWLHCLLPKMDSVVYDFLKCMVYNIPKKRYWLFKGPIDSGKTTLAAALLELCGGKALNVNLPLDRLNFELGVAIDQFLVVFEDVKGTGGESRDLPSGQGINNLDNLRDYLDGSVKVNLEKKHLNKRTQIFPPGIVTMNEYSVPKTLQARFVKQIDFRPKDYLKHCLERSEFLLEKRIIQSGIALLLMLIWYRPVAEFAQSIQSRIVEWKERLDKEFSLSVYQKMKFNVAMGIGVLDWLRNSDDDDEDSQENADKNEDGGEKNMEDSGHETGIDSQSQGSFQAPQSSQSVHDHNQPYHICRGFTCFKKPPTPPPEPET

## CCOc1ccc(NC(=O)CC(NCc2ccccn2)C(=O)O)cc1 (centres undefined)
[1]
  IC50: 1.28 µM (active)

## CCCCCC(=O)Nc1ccc(C(=O)N/N=C/c2ccc([N+](=O)[O-])cc2)cc1
[2]
  EC50: 3.92 µM (active)
[3]
  EC50: 4.99 µM (active)

## Cc1ccc(Cl)cc1N1CCN(CC(=O)NC2CCCc3ccccc32)CC1 (centres undefined)
[4]
  CC50: > 40 µM (active)
[5]
  AC50: 5.48 µM (active)

## Cc1ccc(-c2ccc(/C=N\NC(=O)c3cc4c(ccc5ccccc54)o3)o2)cc1[N+](=O)[O-]
[2]
  EC50: 5.36 µM (active)
[3]
  EC50: 6.21 µM (active)

## Cc1ccc(-c2nn(-c3ccccc3)cc2CN(Cc2ccccc2)C(=O)CCC(=O)O)o1
[6]
  AC50: 0.471 µM (active)

## COc1ccc2c(c1)CC[C@@H]1[C@@H]2CC[C@]2(C)C(=O)CC[C@@H]12
[7]
  IC50: > 64 µM (inactive)

## O=C1NC(=S)N(C2CC2)C(=O)/C1=C/NNC(=O)c1ccccc1
[1]
  IC50: 12.7 µM (active)

## COc1ccc(C2CC(c3ccccc3)=NN2c2ccc(Cl)c(C(=O)O)c2)cc1 (centres undefined)
[8]
  IC50: 39.9 µM (active)

## O=C(Nc1cccc(Cl)c1)Nc1nc(-c2ccc(Cl)cc2)cs1
[2]
  EC50: 28.1 µM (active)
[3]
  EC50: 94.2 µM (active)

## COC(=O)C1=C(C)N(Cc2ccccc2)C(NCc2cccc(Cl)c2)=N[C@H]1c1ccccc1
[4]
  CC50: 18.5 µM (active)
[5]
  AC50: 6.12 µM (active)
[9]
  IC50: > 20 µM (inactive)

## COC(=O)c1[nH]c2ccc(C)cc2c1NS(=O)(=O)c1ccc(F)cc1
[6]
  AC50: 1.81 µM (active)

## c1ccc2c(-c3n[nH]cc3CNCCCn3ncc4ccccc43)cccc2c1
[10]
  AC50: 3.25 µM (active)
[11]
  AC50: 56.7 µM (active)
[12]
  AC50: 4.62 µM (active)

## O=C1CCCC(=O)C1=CNc1cccc(C(F)(F)F)c1
[13]
  EC50: > 350 µM (not active)
[14]
  EC50: > 350 µM (not active)

## Clc1ccc(-c2ccc(/C=N/Nc3nncc(-c4ccccc4)n3)o2)cc1
[2]
  EC50: 16.9 µM (active)
[3]
  EC50: 14.5 µM (active)

## CCc1nnc(NC(=O)c2cc(Cl)ccn2)s1
[1]
  IC50: 11.1 µM (active)

## C/C(=N\NC(=S)NCC(C)(C)C)c1cc(F)cc(F)c1O
[15]
  EC50: 1.32 µM (active)
[16]
  EC50: 0.501 µM (active)
[4]
  CC50: 22.9 µM (active)
[17]
  EC50: 2.68 µM (active)

## CC1(C)C(=O)N(CCN2CCC(C(=O)c3ccc(F)cc3)CC2)c2ccccc21
[18]
  AC50: inconclusive

## Nc1ncc(N=Nc2cc(C(=O)O)ccc2Cl)s1
[19]
  IC50: 67.1 µM (active)
[8]
  IC50: 73.6 µM (active)

## COc1cccc(CNC(=O)Nc2cccs2)c1
[6]
  AC50: 10.4 µM (active)

## CC(=O)Oc1ccc2c(c1)OC(c1ccccc1)CC21CC(C)(C)NC(=S)N1 (centres undefined)
[7]
  IC50: > 64 µM (inactive)

## N#CCC(=O)N/N=C/c1ccc(SCC(=O)Nc2ccccc2)o1
[13]
  EC50: > 350 µM (not active)
[14]
  EC50: > 350 µM (not active)

## Cc1ncc(CO)c(/C=N/NC(=O)c2cccc(S(=O)(=O)N3CCCC3)c2)c1O
[9]
  IC50: > 20 µM (inactive)
[1]
  IC50: 4.73 µM (active)

## Cc1cc(C)c2c(c1)-c1cc(C)nn1C(c1cccnc1)N2 (centres undefined)
[6]
  AC50: 1.77 µM (active)

## CC1Cc2ccccc2N1C(=O)C1CCCCN1S(=O)(=O)c1ccccc1 (centres undefined)
[18]
  AC50: inconclusive

## O=C(NCCN1CCOCC1)c1nn2c(c1Cl)NC(c1ccccc1)CC2C(F)(F)F (centres undefined)
[7]
  IC50: > 64 µM (inactive)
[20]
  AC50: 35.5 µM (inconclusive)
[21]
  AC50: 35.5 µM (inconclusive)

## Cc1ccc2c(c1)C1CN(C)CCC1N2C(=O)/C(C#N)=C/c1ccc2c(c1)OCO2 (centres undefined)
[9]
  IC50: > 20 µM (inactive)

## O=C1OC(c2ccccc2)(c2cc(Br)c(O)c(Br)c2)c2ccccc21 (centres undefined)
[22]
  AC50: 4.1 µM (active)
[8]
  IC50: 35.2 µM (active)

## CCc1nc(SCc2cccnc2)nc(O)c1C
[6]
  AC50: 0.563 µM (active)

## Cc1csc(NC(=O)CSc2ccc(-c3ccccn3)nn2)n1
[1]
  IC50: 10.2 µM (active)

## O=C(CCN1CCOCC1)c1ccccc1
[2]
  EC50: 31.9 µM (active)
[3]
  EC50: 24.8 µM (active)

## COc1cc(N=Nc2cccc(S(N)(=O)=O)c2)c2ccccc2c1N
[1]
  IC50: 14.2 µM (active)
[23]
  AC50: 5.37 µM (active)
[24]
  EC50: 11.5 µM (active)

## C/C(=N\NC(=O)c1cccc(N/N=C(\C)c2ccncc2)c1)c1ccncc1
[6]
  AC50: 0.205 µM (active)
